Source: publication PMC10689823, “Discovery of a Drug-like, Natural Product-Inspired DCAF11 Ligand Chemotype” (Nature Communications, 2023)

System: caspase-3/7 activity
Assay: Caspase-3/7 Activity Assay in Jurkat cells
Format: cell-based
Conditions: 18 h
Procedure: Jurkat cells (3 × 10^3) were seeded in 96-well plates in 25 μl culture medium. Cells were treated with compounds dissolved in 25 μl medium at the indicated concentration for 18 h. After adding 50 μl of Caspase-Glo® 3/7 Reagent (Promega, G8091) to each well for 30 min at room temperature, the luminescence was measured on a Spark® Multimode Microplate Reader (Tecan). The data was analyzed by the GraphPad Prism 9.0.

Row | Structure (SMILES) | caspase-3/7 activation compared with JQ1 or non-active degraders 16 and 17
1 | Cc1sc2c(c1C)C(c1ccc(Cl)cc1)=N[C@@H](CC(=O)NCCOCCOCCOCCOCCNC(=O)COc1c(Br)cc(/C=C3\C(=O)Nc4ccc(Br)cc43)cc1Br)c1nnc(C)n1-2 [Compound 9] | substantially higher
2 | Cc1sc2c(c1C)C(c1ccc(Cl)cc1)=NC(CC(=O)NCCOCCOCCOCCOc1c(Br)cc(C=C3C(=O)Nc4ccc(Br)cc43)cc1Br)c1nnc(C)n1-2 (centres unmarked) [Compound 10] | substantially higher
